According to patent US9540391B2, “Isomannide derivatives as inhibitors of soluble epoxide hydrolase” (SANOFI, priority 2013, dated 2017):

Target: T1, recombinant sEH (Homo sapiens, UniProt P34913)
T1 construct: made in house; host or cells: Sf9 insect cells
T1 sequence (P34913 1-555): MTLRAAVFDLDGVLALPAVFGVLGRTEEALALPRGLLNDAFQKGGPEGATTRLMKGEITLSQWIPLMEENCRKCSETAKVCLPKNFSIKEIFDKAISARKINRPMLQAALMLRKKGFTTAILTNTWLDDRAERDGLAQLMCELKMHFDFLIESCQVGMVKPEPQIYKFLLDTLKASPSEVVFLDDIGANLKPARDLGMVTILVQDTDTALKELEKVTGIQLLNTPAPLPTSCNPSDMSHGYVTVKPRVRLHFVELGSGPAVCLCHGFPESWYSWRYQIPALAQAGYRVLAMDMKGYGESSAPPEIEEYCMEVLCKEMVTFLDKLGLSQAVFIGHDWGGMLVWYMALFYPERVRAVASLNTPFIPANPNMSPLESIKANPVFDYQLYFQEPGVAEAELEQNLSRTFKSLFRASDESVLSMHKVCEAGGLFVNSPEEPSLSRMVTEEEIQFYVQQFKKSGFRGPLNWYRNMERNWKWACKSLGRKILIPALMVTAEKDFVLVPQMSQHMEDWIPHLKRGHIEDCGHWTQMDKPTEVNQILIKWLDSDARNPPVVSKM
Test: biochemical screening assay for inhibition of soluble epoxide hydrolase (fluorometric, Phome substrate)
Summary of the method: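 Human sEH from Sf9 cells (2 nM final) was pre-incubated 15 min at 30 °C with compound (0.0001–10 μM), then reacted 60 min at 30 °C with 5 μM Phome in 25 mM Hepes/0.01% albumin. Fluorescence of released 6-methoxy-2-naphthaldehyde was read before substrate and at end; IC50 from % inhibition.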

IC50 | Structure (SMILES)
80 nM | O=C(Nc1ccc(OCc2ccccc2)cc1)NC1COC2C(CCc3ccccc3)COC12 [Example 355, 1-(4-Benzyloxy-phenyl)-3-[(3S,3aR,6R)-6-((S)-phenethyl)-hexahydro-furo[3,2-b]furan-3-yl]-urea]
67 nM | O=C(NCCc1ccccc1)N[C@H]1CO[C@H]2[C@@H]1OC[C@@H]2C#Cc1ccccc1 [Example 297, 1-Phenethyl-3-((3S,3aR,6S,6aR)-6-phenylethynyl-hexahydro-furo[3,2-b]furan-3-yl)-urea]
4460 nM | O=C(N[C@H]1CO[C@H]2[C@@H]1OC[C@@H]2Oc1ccc(F)cc1)NC1(c2cccs2)CCOCC1 [Example 169, 1-[(3S,3aR,6S,6aS)-6-(4-Fluoro-phenoxy)-hexahydro-furo[3,2-b]furan-3-yl]-3-(4-thiophen-2-yl-tetrahydro-pyran-4-yl)-urea]
1680 nM | Cc1nc(CNC(=O)N[C@H]2CO[C@H]3[C@@H]2OC[C@@H]3Oc2cccnc2C)cs1 [Example 227, 1-[(3S,3aR,6S,6aS)-6-(2-Methyl-pyridin-3-yloxy)-hexahydro-furo[3,2-b]furan-3-yl]-3-(2-methyl-thiazol-4-ylmethyl)-urea]
149 nM | COc1cc(NC(=O)N[C@H]2CO[C@H]3[C@H](CCc4ccccc4)CO[C@@H]32)cc(OC)c1 [Example 352, 1-(3,5-Dimethoxy-phenyl)-3-[(3S,3aR,6R)-6-((S)-phenethyl)-hexa-hydro-furo[3,2-b]furan-3-yl]-urea]
25 nM | O=C(Nc1ccccc1)NC1COC2C(CCc3ccsc3)COC12 [Example 363, 1-Phenyl-3-[(3S,3aR,6R)-6-((S)-2-thiophen-3-yl-ethyl)-hexahydro-furo[3,2-b]furan-3-yl]-urea]
73 nM | O=C(Nc1ccc2c(c1)CCC2)N[C@H]1CO[C@H]2[C@@H]1OC[C@@H]2C#Cc1ccsc1 [Example 310, 1-Indan-5-yl-3-((3S,3aR,6S,6aR)-6-thiophen-3-ylethynyl-hexahydro-furo[3,2-b]furan-3-yl)-urea]
24 nM | N#C[C@H]1CO[C@H]2[C@@H]1OC[C@@H]2NC(=O)Nc1ccc(OC(F)(F)F)cc1 [Example 378, 1-((3S,3aR,6S,6aR)-6-cyano-hexahydro-furo[3,2-b]furan-3-yl)-3-(4-trifluoromethoxy-phenyl)-urea]
227 nM | O=C(Nc1ccccc1)N[C@H]1CO[C@@H]2[C@@H]1OC[C@H]2C#Cc1ccccc1 [Example 286, 1-Phenyl-3-[(3S,3aR,6R)-6-((S)-phenylethynyl)-hexa-hydro-furo[3,2-b]furan-3-yl]-urea]
16 nM | O=C(NC1CCCCC1)N[C@H]1CO[C@H]2[C@@H]1OC[C@@H]2OC(=O)N1CCOCC1 [Example 4, morpholine-4-carboxylic acid (3S,3aS,6S,6aR)-6-(3-cyclohexyl-ureido)-hexahydro-furo[3,2-b]furan-3-yl ester]
3 nM | Cc1ccc(S[C@H]2CO[C@H]3[C@@H]2OC[C@@H]3NC(=O)NC2CCCCC2)nn1 [Example 57, 1-Cyclohexyl-3-[(3S,3aR,6S,6aS)-6-(6-methyl-pyridazin-3-ylsulfanyl)-hexahydro-furo[3,2-b]furan-3-yl]-urea]
87 nM | O=C(Nc1cccc(C(F)(F)F)c1)N[C@H]1CO[C@H]2[C@@H]1OC[C@@H]2C#Cc1ccsc1 [Example 316, 1-((3S,3aR,6S,6aR)-6-Thiophen-3-ylethynyl-hexahydro-furo[3,2-b]furan-3-yl)-3-(3-trifluoromethyl-phenyl)-urea]
18 nM | C[C@@H](NC(=O)N[C@H]1CO[C@H]2[C@@H]1OC[C@@H]2Oc1ccc(F)cc1)c1ccc(Cl)cc1 [Example 166, 1-[(R)-1-(4-Chloro-phenyl)-ethyl]-3-[(3S,3aR,6S,6aS)-6-(4-fluoro-phenoxy)-hexahydro-furo[3,2-b]furan-3-yl]-urea]
177 nM | COC[C@@H](NC(=O)N[C@H]1CO[C@H]2[C@@H]1OC[C@@H]2Oc1cccnc1C)c1ccccc1 [Example 237, 1-((S)-2-Methoxy-1-phenyl-ethyl)-3-[(3S,3aR,6S,6aS)-6-(2-methyl-pyridin-3-yloxy)-hexahydro-furo[3,2-b]furan-3-yl]-urea]
35 nM | Cc1cccc(NC(=O)N[C@H]2CO[C@@H]3[C@@H]2OC[C@H]3C#Cc2ccccc2)c1 [Example 289, 1-[(3S,3aR,6R)-6-((S)-Phenylethynyl)-hexahydro-furo[3,2-b]furan-3-yl]-3-m-tolyl-urea]
117 nM | Cc1ncccc1O[C@H]1CO[C@H]2[C@@H]1OC[C@@H]2NC(=O)NC(C)(C)C1CCCCC1 [Example 241, 1-(1-Cyclohexyl-1-methyl-ethyl)-3-[(3S,3aR,6S,6aS)-6-(2-methyl-pyridin-3-yloxy)-hexahydro-furo[3,2-b]furan-3-yl]-urea]
16 nM | COC(=O)c1cccc(NC(=O)NC2COC3C(C#Cc4ccsc4)COC23)c1 [Example 309, 3-[3-((3S,3aR,6S,6aR)-6-Thio-phen-3-ylethynyl-hexahydro-furo[3,2-b]furan-3-yl)-ureido]-benzoic acid methyl ester]
1450 nM | Cc1ncccc1O[C@H]1CO[C@H]2[C@@H]1OC[C@@H]2NC(=O)NCC1CCCO1 (stereo partly drawn) [Example 176, 1-[(3S,3aR,6S,6aS)-6-(2-Methyl-pyridin-3-yloxy)-hexahydro-furo[3,2-b]furan-3-yl]-3-(tetrahydro-furan-2-ylmethyl)-urea]
8 nM | CC(=O)NCCS[C@H]1CO[C@H]2[C@@H]1OC[C@@H]2NC(=O)NC1CCCCC1 [Example 16, N-{2-[(3S,3aS,6S,6aR)-6-(3-Cyclohexyl-ureido)-hexahydro-furo[3,2-b]furan-3-ylsulfanyl]-ethyl}-acetamide]
3 nM | O=C(NC1CCCCC1)N[C@H]1CO[C@H]2[C@@H]1OC[C@@H]2Oc1ccc2c(c1)C(=O)CC2 [Example 118, 1-Cyclohexyl-3-[(3S,3aR,6S,6aS)-6-(3-oxo-indan-5-yloxy)-hexahydro-furo[3,2-b]furan-3-yl]-urea]
104 nM | COc1cc(NC(=O)N[C@H]2CO[C@H]3[C@@H]2OC[C@@H]3C#Cc2ccsc2)cc(OC)c1 [Example 301, 1-(3,5-Dimethoxy-phenyl)-3-((3S,3aR,6S,6aR)-6-thiophen-3-ylethynyl-hexahydro-furo[3,2-b]furan-3-yl)-urea]
5 nM | Cc1ncccc1O[C@H]1CO[C@H]2[C@@H]1OC[C@@H]2NC(=O)NC[C@H]1C[C@H]2C[C@@H]([C@@H]1C)C2(C)C [Example 178, 1-[(3S,3aR,6S,6aS)-6-(2-Methyl-pyridin-3-yloxy)-hexahydro-furo[3,2-b]furan-3-yl]-3-((1S,2S,3S,5R)-2,6,6-trimethyl-bicyclo[3.1.1]hept-3-ylmethyl)-urea]
2 nM | Cc1ncccc1O[C@H]1CO[C@H]2[C@@H]1OC[C@@H]2NC(=O)NC1CCCCC1(F)F (stereo partly drawn) [Example 277, 1-(2,2-Difluoro-cyclohexyl)-3-[(3S,3aR,6S,6aS)-6-(2-methyl-pyridin-3-yloxy)-hexahydro-furo[3,2-b]furan-3-yl]-urea]
16 nM | Cc1ncccc1O[C@H]1CO[C@H]2[C@@H]1OC[C@@H]2NC(=O)NC1CCC2(CC1)OCCO2 [Example 266, 1-(1,4-Dioxa-spiro[4.5]dec-8-yl)-3-[(3S,3aR,6S,6aS)-6-(2-methyl-pyridin-3-yloxy)-hexahydro-furo[3,2-b]furan-3-yl]-urea]
140 nM | O=C(NCc1ccc(F)cc1)NC1COC2C(CCc3ccccc3)COC12 [Example 356, 1-(4-Fluoro-benzyl)-3-[(3S,3aR,6R)-6-((S)-phenethyl)-hexahydro-furo[3,2-b]furan-3-yl]-urea]
997 nM | Cc1ncccc1O[C@H]1CO[C@H]2[C@@H]1OC[C@@H]2NC(=O)NCc1cn(C)cn1 [Example 198, 1-(1-Methyl-1H-imidazol-4-ylmethyl)-3-[(3S,3aR,6S,6aS)-6-(2-methyl-pyridin-3-yloxy)-hexahydro-furo[3,2-b]furan-3-yl]-urea]
243 nM | Cc1cccc(CNC(=O)N[C@H]2CO[C@H]3[C@@H]2OC[C@@H]3C#Cc2ccsc2)c1 [Example 305, 1-(3-Methyl-benzyl)-3-((3S,3aR,6S,6aR)-6-thiophen-3-ylethynyl-hexahydro-furo[3,2-b]furan-3-yl)-urea]
25 nM | Cc1ncccc1O[C@H]1CO[C@H]2[C@@H]1OC[C@@H]2NC(=O)NC1CC(C)CCC1C(C)C (stereo partly drawn) [Example 263, 1-(2-Isopropyl-5-methyl-cyclohexyl)-3-[(3S,3aR,6S,6aS)-6-(2-methyl-pyridin-3-yloxy)-hexahydro-furo[3,2-b]furan-3-yl]-urea]
25 nM | O=C(Nc1ccc(OC(F)(F)F)cc1)N[C@H]1CO[C@H]2[C@@H]1OC[C@@H]2C#Cc1ccccc1 [Example 298, 1-((3S,3aR,6S,6aR)-6-Phenylethynyl-hexahydro-furo[3,2-b]furan-3-yl)-3-(4-trifluoromethoxy-phenyl)-urea]
128 nM | O=C(NC1CCCCC1)N[C@H]1CO[C@@H]2[C@@H](CCc3ccc4c(c3)OCO4)CO[C@@H]21 [Example 347, 1-[(3S,3aR,6S,6aR)-6-(2-benzo[1,3]dioxol-5-yl-ethyl)-hexahydro-furo[3,2-b]furan-3-yl]-3-cyclohexyl-urea]
